Laboratory results as given in PubChem BioAssay (NCI).
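Method: 48-hour compound exposure of cells in 96-well plates, five concentrations, linear interpolation of endpoints. The concentration for 50% growth inhibition is given as GI50. The concentration for full growth arrest is given as TGI.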

Key:
Experiment in all cases: inhibition of tumour cell growth, NCI panel, 48 h
ACHN renal = tested on: ACHN renal
CAKI-1 renal = tested on: CAKI-1 renal
SF-539 CNS = tested on: SF-539 CNS
KM12 colon = tested on: KM12 colon
K-562 leukemia = tested on: K-562 leukemia
SR leukemia = tested on: SR leukemia
SNB-19 CNS = tested on: SNB-19 CNS
MCF7 breast = tested on: MCF7 breast
T-47D breast = tested on: T-47D breast
SN12C renal = tested on: SN12C renal
SK-MEL-28 melanoma = tested on: SK-MEL-28 melanoma
IGROV1 ovarian = tested on: IGROV1 ovarian
NCI-H522 lung = tested on: NCI-H522 lung
BT-549 breast = tested on: BT-549 breast
TK-10 renal = tested on: TK-10 renal
NCI-H226 lung = tested on: NCI-H226 lung
NCI-H460 lung = tested on: NCI-H460 lung
OVCAR-8 ovarian = tested on: OVCAR-8 ovarian
HT29 colon = tested on: HT29 colon
OVCAR-5 ovarian = tested on: OVCAR-5 ovarian
SF-268 CNS = tested on: SF-268 CNS
HCT-15 colon = tested on: HCT-15 colon
DU-145 prostate = tested on: DU-145 prostate
HCC-2998 colon = tested on: HCC-2998 colon
OVCAR-3 ovarian = tested on: OVCAR-3 ovarian
SK-MEL-5 melanoma = tested on: SK-MEL-5 melanoma
786-0 renal = tested on: 786-0 renal
PC-3 prostate = tested on: PC-3 prostate
EKVX NSCLC = tested on: EKVX NSCLC
NCI-H23 lung = tested on: NCI-H23 lung
NCI/ADR-RES ovarian = tested on: NCI/ADR-RES ovarian
A549 NSCLC = tested on: A549 NSCLC
MDA-MB-231 breast = tested on: MDA-MB-231 breast
RPMI-8226 leukemia = tested on: RPMI-8226 leukemia
SF-295 CNS = tested on: SF-295 CNS
HS 578T breast = tested on: HS 578T breast
U251 CNS = tested on: U251 CNS
MDA-MB-435 = tested on: MDA-MB-435
UACC-257 melanoma = tested on: UACC-257 melanoma
SK-MEL-2 melanoma = tested on: SK-MEL-2 melanoma
HCT-116 colon = tested on: HCT-116 colon
HL-60(TB) leukemia = tested on: HL-60(TB) leukemia
LOX IMVI melanoma = tested on: LOX IMVI melanoma
HOP-92 NSCLC = tested on: HOP-92 NSCLC
A498 renal = tested on: A498 renal
SW-620 colon = tested on: SW-620 colon
MOLT-4 leukemia = tested on: MOLT-4 leukemia
RXF 393 renal = tested on: RXF 393 renal
M14 melanoma = tested on: M14 melanoma
SNB-75 CNS = tested on: SNB-75 CNS
OVCAR-4 ovarian = tested on: OVCAR-4 ovarian
HOP-62 NSCLC = tested on: HOP-62 NSCLC
MDA-N = tested on: MDA-N
UO-31 renal = tested on: UO-31 renal
MALME-3M melanoma = tested on: MALME-3M melanoma
SK-OV-3 ovarian = tested on: SK-OV-3 ovarian
UACC-62 melanoma = tested on: UACC-62 melanoma
COLO 205 colon = tested on: COLO 205 colon

COc1ccc2[nH]c3c(O)c(-c4c(C)cc5c([nH]c6ccc(OC)cc65)c4O)c(C)cc3c2c1
TGI (ACHN renal): 8.15 µM | GI50 (CAKI-1 renal): 4.27 µM | TGI (CAKI-1 renal): 8.39 µM | TGI (SF-539 CNS): 8.81 µM | TGI (KM12 colon): 7.74 µM | GI50 (K-562 leukemia): 4.04 µM | TGI (K-562 leukemia): 8.13 µM | GI50 (SR leukemia): 3.97 µM | TGI (SR leukemia): 8.34 µM | TGI (SNB-19 CNS): 8.72 µM | GI50 (MCF7 breast): 4.49 µM | TGI (MCF7 breast): 8.43 µM | TGI (T-47D breast): 13.8 µM | TGI (SN12C renal): 8.17 µM | TGI (SK-MEL-28 melanoma): 9.64 µM | TGI (IGROV1 ovarian): 8.04 µM | TGI (NCI-H522 lung): 9.2 µM | TGI (BT-549 breast): 8.2 µM | TGI (TK-10 renal): 8.19 µM | TGI (NCI-H226 lung): 9.06 µM | TGI (NCI-H460 lung): 7.52 µM | TGI (OVCAR-8 ovarian): 8.39 µM | GI50 (HT29 colon): 3.71 µM | TGI (HT29 colon): 7.6 µM | GI50 (OVCAR-5 ovarian): 3.82 µM | TGI (OVCAR-5 ovarian): 7.34 µM | TGI (SF-268 CNS): 8.06 µM | GI50 (HCT-15 colon): 4.2 µM | TGI (HCT-15 colon): 8.2 µM | TGI (DU-145 prostate): 7.97 µM | TGI (HCC-2998 colon): 6.99 µM | TGI (OVCAR-3 ovarian): 7.79 µM | GI50 (SK-MEL-5 melanoma): 4.34 µM | TGI (SK-MEL-5 melanoma): 8.18 µM | TGI (786-0 renal): 8.62 µM | TGI (PC-3 prostate): 7.69 µM | TGI (EKVX NSCLC): 7.8 µM | GI50 (NCI-H23 lung): 4.48 µM | TGI (NCI-H23 lung): 8.38 µM | TGI (NCI/ADR-RES ovarian): 8.13 µM | TGI (A549 NSCLC): 7.97 µM | TGI (MDA-MB-231 breast): 10.8 µM | GI50 (RPMI-8226 leukemia): 3.61 µM | TGI (RPMI-8226 leukemia): 7.45 µM | GI50 (SF-295 CNS): 5.11 µM | TGI (SF-295 CNS): 8.86 µM | TGI (HS 578T breast): 11.5 µM | TGI (U251 CNS): 7.98 µM | GI50 (MDA-MB-435): 4.34 µM | TGI (MDA-MB-435): 8 µM | TGI (UACC-257 melanoma): 8.32 µM | TGI (SK-MEL-2 melanoma): 10.7 µM | TGI (HCT-116 colon): 7.63 µM | GI50 (HL-60(TB) leukemia): 0.0321 µM | TGI (HL-60(TB) leukemia): 4.96 µM | TGI (LOX IMVI melanoma): 8.06 µM | TGI (HOP-92 NSCLC): 8.18 µM | GI50 (A498 renal): 4.78 µM | TGI (A498 renal): 8.35 µM | TGI (SW-620 colon): 10.3 µM | GI50 (MOLT-4 leukemia): 3.23 µM | TGI (MOLT-4 leukemia): 7.52 µM | TGI (RXF 393 renal): 8.82 µM | TGI (M14 melanoma): 7.99 µM | TGI (SNB-75 CNS): 7.18 µM | TGI (OVCAR-4 ovarian): 7.22 µM | TGI (HOP-62 NSCLC): 8.35 µM | GI50 (MDA-N): 4.5 µM | TGI (MDA-N): 8.22 µM | GI50 (UO-31 renal): 3.78 µM | TGI (UO-31 renal): 7.12 µM

CCOc1nc2sc3c(c2c(=O)n1CCSSCCn1c(OCC)nc2sc4c(c2c1=O)CCCC4)CCCC3
TGI (ACHN renal): > 100 µM | TGI (CAKI-1 renal): > 100 µM | TGI (SF-539 CNS): > 100 µM | TGI (KM12 colon): > 100 µM | TGI (K-562 leukemia): > 100 µM | TGI (SR leukemia): > 100 µM | TGI (SNB-19 CNS): > 100 µM | TGI (MCF7 breast): > 100 µM | TGI (T-47D breast): > 100 µM | TGI (SN12C renal): > 100 µM | TGI (SK-MEL-28 melanoma): > 100 µM | TGI (IGROV1 ovarian): > 100 µM | TGI (BT-549 breast): > 100 µM | TGI (TK-10 renal): > 100 µM | TGI (NCI-H226 lung): > 100 µM | TGI (MALME-3M melanoma): > 100 µM | TGI (NCI-H460 lung): > 100 µM | TGI (OVCAR-8 ovarian): > 100 µM | TGI (HT29 colon): > 100 µM | TGI (SK-OV-3 ovarian): > 100 µM | TGI (OVCAR-5 ovarian): > 100 µM | TGI (SF-268 CNS): > 100 µM | TGI (HCT-15 colon): > 100 µM | TGI (UACC-62 melanoma): > 100 µM | TGI (DU-145 prostate): > 100 µM | TGI (HCC-2998 colon): > 100 µM | TGI (OVCAR-3 ovarian): > 100 µM | TGI (SK-MEL-5 melanoma): > 100 µM | TGI (786-0 renal): > 100 µM | TGI (PC-3 prostate): > 100 µM | TGI (EKVX NSCLC): > 100 µM | TGI (NCI-H23 lung): > 100 µM | TGI (NCI/ADR-RES ovarian): > 100 µM | TGI (A549 NSCLC): > 100 µM | TGI (MDA-MB-231 breast): > 100 µM | TGI (RPMI-8226 leukemia): > 100 µM | TGI (SF-295 CNS): > 100 µM | TGI (HS 578T breast): > 100 µM | TGI (U251 CNS): > 100 µM | TGI (COLO 205 colon): > 100 µM | TGI (MDA-MB-435): > 100 µM | TGI (UACC-257 melanoma): > 100 µM | TGI (SK-MEL-2 melanoma): > 100 µM | TGI (HCT-116 colon): > 100 µM | TGI (LOX IMVI melanoma): > 100 µM | TGI (A498 renal): > 100 µM | TGI (SW-620 colon): > 100 µM | TGI (MOLT-4 leukemia): > 100 µM | TGI (M14 melanoma): > 100 µM | TGI (SNB-75 CNS): > 100 µM | TGI (OVCAR-4 ovarian): > 100 µM | TGI (HOP-62 NSCLC): > 100 µM | TGI (MDA-N): > 100 µM | TGI (UO-31 renal): > 100 µM
